Laboratory results published in ChEMBL document CHEMBL3997839, “Novel conjugates of endoperoxide and 4-anilinoquinazoline as potential anticancer agents” (Bioorg Med Chem Lett, 2017).
Activity calls are given as the source filed them. No cut-off for these calls is given here.

Tests used:
[1] = biological target: Epidermal growth factor receptor (Homo sapiens, UniProt P00533)
Description: Inhibition of recombinant human GST-tagged EGFR cytoplasmic domain (668 to 1210 residues) expressed in baculovirus expression system by Z'-Lyte assay

[2] = system: A-431; assay: Antiproliferative activity against EGFR over-expressing human A431 cells after 48 hrs by MTT assay; type: functional, cell-based
[3] = system: NCI-H1975; assay: cells; type: functional, cell-based, Homo sapiens
[4] = system: L02; assay: Antiproliferative activity against human HL7702 cells after 48 hrs by MTT assay; type: ADME, cell-based
[5] = biological target: Epidermal growth factor receptor (Homo sapiens, UniProt P00533, L858R/T790M); assay: Inhibition of recombinant human GST-tagged EGFR L858R/T790M double mutant cytoplasmic domain (668 to 1210 residues) expressed in baculovirus expression system by Z'-Lyte assay
[6] = system: A549; assay: Antiproliferative activity against human A549 cells harboring wild type EGFR after 48 hrs by MTT assay; type: functional, cell-based
[7] = biological target: Epidermal growth factor receptor (Homo sapiens, UniProt P00533, L858R); type: cell-based
Chain of Epidermal growth factor receptor (Homo sapiens, UniProt P00533, L858R) (P00533 25-1210 L858R limits assumed): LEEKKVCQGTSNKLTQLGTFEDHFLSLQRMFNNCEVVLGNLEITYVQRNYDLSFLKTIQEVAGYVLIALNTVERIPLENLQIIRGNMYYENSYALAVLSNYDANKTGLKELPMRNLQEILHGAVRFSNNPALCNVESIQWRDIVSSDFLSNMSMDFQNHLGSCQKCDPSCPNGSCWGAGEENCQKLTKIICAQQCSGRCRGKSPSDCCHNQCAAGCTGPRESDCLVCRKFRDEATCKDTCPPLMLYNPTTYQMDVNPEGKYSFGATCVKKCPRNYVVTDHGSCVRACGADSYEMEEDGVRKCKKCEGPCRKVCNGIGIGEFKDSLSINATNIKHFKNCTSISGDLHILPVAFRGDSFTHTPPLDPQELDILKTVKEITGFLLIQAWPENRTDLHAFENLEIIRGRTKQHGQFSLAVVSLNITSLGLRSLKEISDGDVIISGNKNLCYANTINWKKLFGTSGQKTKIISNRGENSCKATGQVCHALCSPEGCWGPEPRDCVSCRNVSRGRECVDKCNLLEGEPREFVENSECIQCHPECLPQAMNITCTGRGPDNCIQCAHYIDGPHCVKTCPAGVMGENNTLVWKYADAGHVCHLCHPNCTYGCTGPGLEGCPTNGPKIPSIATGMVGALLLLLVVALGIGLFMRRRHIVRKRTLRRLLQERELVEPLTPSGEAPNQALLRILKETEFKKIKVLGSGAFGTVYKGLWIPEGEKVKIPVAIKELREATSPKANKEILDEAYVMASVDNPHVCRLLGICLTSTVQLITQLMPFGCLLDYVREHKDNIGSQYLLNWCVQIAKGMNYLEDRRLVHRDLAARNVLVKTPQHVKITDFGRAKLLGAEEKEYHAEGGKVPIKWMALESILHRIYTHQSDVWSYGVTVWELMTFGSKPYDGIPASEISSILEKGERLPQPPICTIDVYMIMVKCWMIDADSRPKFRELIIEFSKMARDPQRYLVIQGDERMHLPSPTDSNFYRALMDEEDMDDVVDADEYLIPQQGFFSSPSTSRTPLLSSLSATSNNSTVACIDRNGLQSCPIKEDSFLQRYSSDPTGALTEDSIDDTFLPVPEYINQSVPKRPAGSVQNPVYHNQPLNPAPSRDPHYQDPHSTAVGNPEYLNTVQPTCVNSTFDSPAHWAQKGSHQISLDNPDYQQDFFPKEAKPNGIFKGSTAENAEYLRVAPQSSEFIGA

[8] = system: HCC827; assay: Antiproliferative activity against human HCC827 cells harboring EGFR E746_A750 deletion mutant after 48 hrs by MTT assay; type: functional, cell-based
[9] = system: NCI-H1975; assay: Induction of ROS generation in human NCI-H1975 cells harboring EGFR L858R/T790M double mutant at 15 to 60 uM after 4 hrs by DCFH-DA staining based flow cytometry; type: functional, cell-based
[10] = system: NCI-H1975; assay: Induction of ROS generation in human NCI-H1975 cells harboring EGFR L858R/T790M double mutant at 100 uM after 4 hrs by DCFH-DA staining based flow cytometry; type: functional, cell-based
[11] = system: NCI-H1975; assay: Induction of ROS generation in human NCI-H1975 cells harboring EGFR L858R/T790M double mutant assessed as fluorescence level at 6 uM after 4 hrs by DCFH-DA staining based flow cytometry; type: functional
[12] = system: NCI-H1975; assay: Induction of apoptosis in human NCI-H1975 cells harboring EGFR L858R/T790M double mutant assessed as necrotic cells at 9 uM after 48 hrs by Annexin V/propidium iodide staining based flow cytometry (reference value: 4.13%); type: functional
[13] = system: NCI-H1975; assay: Induction of apoptosis in human NCI-H1975 cells harboring EGFR L858R/T790M double mutant assessed as early apoptotic cells at 3 uM after 48 hrs by Annexin V/propidium iodide staining based flow cytometry (reference value: 4.1%); type: functional
[14] = system: NCI-H1975; assay: Induction of apoptosis in human NCI-H1975 cells harboring EGFR L858R/T790M double mutant after 48 hrs by Annexin V/propidium iodide staining based flow cytometry; type: functional, cell-based
[15] = system: NCI-H1975; assay: Induction of apoptosis in human NCI-H1975 cells harboring EGFR L858R/T790M double mutant assessed as necrotic cells at 6 uM after 48 hrs by Annexin V/propidium iodide staining based flow cytometry (reference value: 4.13%); type: functional
[16] = system: NCI-H1975; assay: Induction of apoptosis in human NCI-H1975 cells harboring EGFR L858R/T790M double mutant assessed as early apoptotic cells at 9 uM after 48 hrs by Annexin V/propidium iodide staining based flow cytometry (reference value: 4.1%); type: functional
[17] = system: NCI-H1975; assay: Induction of apoptosis in human NCI-H1975 cells harboring EGFR L858R/T790M double mutant assessed as late apoptotic cells at 9 uM after 48 hrs by Annexin V/propidium iodide staining based flow cytometry (reference value: 7.2%); type: functional
[18] = system: NCI-H1975; assay: Induction of apoptosis in human NCI-H1975 cells harboring EGFR L858R/T790M double mutant assessed as live cells at 6 uM after 48 hrs by Annexin V/propidium iodide staining based flow cytometry (reference value: 83.5%); type: functional
[19] = system: NCI-H1975; assay: Induction of apoptosis in human NCI-H1975 cells harboring EGFR L858R/T790M double mutant assessed as increase in cleaved PARP expression at 2.5 to 10 uM after 24 hrs by Western blot method; type: functional, cell-based
[20] = system: NCI-H1975; assay: Induction of apoptosis in human NCI-H1975 cells harboring EGFR L858R/T790M double mutant assessed as necrotic cells at 3 uM after 48 hrs by Annexin V/propidium iodide staining based flow cytometry (reference value: 4.13%); type: functional
[21] = system: NCI-H1975; assay: Induction of apoptosis in human NCI-H1975 cells harboring EGFR L858R/T790M double mutant assessed as live cells at 9 uM after 48 hrs by Annexin V/propidium iodide staining based flow cytometry (reference value: 83.5%); type: functional
[22] = system: NCI-H1975; assay: Induction of ROS generation in human NCI-H1975 cells harboring EGFR L858R/T790M double mutant assessed as fluorescence level at 3 uM after 4 hrs by DCFH-DA staining based flow cytometry; type: functional
[23] = system: NCI-H1975; assay: Induction of apoptosis in human NCI-H1975 cells harboring EGFR L858R/T790M double mutant assessed as late apoptotic cells at 3 uM after 48 hrs by Annexin V/propidium iodide staining based flow cytometry (reference value: 7.2%); type: functional
[24] = system: NCI-H1975; assay: Induction of apoptosis in human NCI-H1975 cells harboring EGFR L858R/T790M double mutant assessed as early apoptotic cells at 6 uM after 48 hrs by Annexin V/propidium iodide staining based flow cytometry (reference value: 4.1%); type: functional
[25] = system: NCI-H1975; assay: Induction of ROS generation in human NCI-H1975 cells harboring EGFR L858R/T790M double mutant assessed as fluorescence level at 12 uM after 4 hrs by DCFH-DA staining based flow cytometry; type: functional
[26] = system: NCI-H1975; assay: Induction of ROS generation in human NCI-H1975 cells harboring EGFR L858R/T790M double mutant after 4 hrs by DCFH-DA staining based flow cytometry; type: functional, cell-based
[27] = system: NCI-H1975; assay: Induction of apoptosis in human NCI-H1975 cells harboring EGFR L858R/T790M double mutant assessed as late apoptotic cells at 6 uM after 48 hrs by Annexin V/propidium iodide staining based flow cytometry (reference value: 7.2%); type: functional
[28] = system: NCI-H1975; assay: Induction of apoptosis in human NCI-H1975 cells harboring EGFR L858R/T790M double mutant assessed as live cells at 3 uM after 48 hrs by Annexin V/propidium iodide staining based flow cytometry (reference value: 83.5%); type: functional

Chain of Epidermal growth factor receptor (Homo sapiens, UniProt P00533) (P00533 whole entry): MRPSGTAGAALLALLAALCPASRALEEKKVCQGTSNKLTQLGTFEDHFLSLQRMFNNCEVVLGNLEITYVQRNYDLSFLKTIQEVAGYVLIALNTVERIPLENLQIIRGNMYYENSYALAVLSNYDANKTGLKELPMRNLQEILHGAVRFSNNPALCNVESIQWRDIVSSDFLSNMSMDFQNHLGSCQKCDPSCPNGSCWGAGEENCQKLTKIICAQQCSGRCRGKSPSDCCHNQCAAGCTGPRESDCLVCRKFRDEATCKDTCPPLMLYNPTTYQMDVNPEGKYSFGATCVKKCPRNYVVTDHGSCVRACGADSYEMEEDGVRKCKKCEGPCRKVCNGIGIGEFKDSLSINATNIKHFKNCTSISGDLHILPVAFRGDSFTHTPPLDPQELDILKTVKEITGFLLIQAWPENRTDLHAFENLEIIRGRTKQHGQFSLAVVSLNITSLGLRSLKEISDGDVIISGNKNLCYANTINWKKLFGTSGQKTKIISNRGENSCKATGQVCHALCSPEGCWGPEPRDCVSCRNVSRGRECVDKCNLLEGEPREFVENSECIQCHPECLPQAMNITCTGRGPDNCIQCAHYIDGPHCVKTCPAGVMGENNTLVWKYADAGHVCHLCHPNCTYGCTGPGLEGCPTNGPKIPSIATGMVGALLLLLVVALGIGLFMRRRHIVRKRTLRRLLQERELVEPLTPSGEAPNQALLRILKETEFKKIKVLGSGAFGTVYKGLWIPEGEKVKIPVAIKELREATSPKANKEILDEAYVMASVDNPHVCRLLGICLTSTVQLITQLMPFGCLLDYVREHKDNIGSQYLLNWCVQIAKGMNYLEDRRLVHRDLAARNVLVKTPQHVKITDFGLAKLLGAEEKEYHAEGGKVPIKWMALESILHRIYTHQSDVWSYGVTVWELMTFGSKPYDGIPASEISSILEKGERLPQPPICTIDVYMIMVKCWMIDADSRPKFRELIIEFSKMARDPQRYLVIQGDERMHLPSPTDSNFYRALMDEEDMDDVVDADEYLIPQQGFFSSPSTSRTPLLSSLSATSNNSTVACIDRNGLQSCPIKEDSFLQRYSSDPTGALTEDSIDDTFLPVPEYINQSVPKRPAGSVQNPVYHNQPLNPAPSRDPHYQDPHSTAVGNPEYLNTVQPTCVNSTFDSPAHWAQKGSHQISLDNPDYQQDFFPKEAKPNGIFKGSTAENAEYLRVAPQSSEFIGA

Row | SMILES | IC50 [1] | IC50 ([2]; Homo sapiens, A-431, 48 h) | IC50 ([3]; Homo sapiens, NCI-H1975, 48 h) | IC50 ([4]; Homo sapiens, L02, 48 h) | IC50 [5] | IC50 ([6]; Homo sapiens, A549, 48 h) | IC50 [7] | IC50 ([8]; Homo sapiens, HCC827, 48 h) | IC50 ([2]; a-431) | IC50 ([3]; nci-h1975) | IC50 ([8]; hcc827) | other results
1 | O=C(Nc1ccc2ncnc(Nc3cccc(Cl)c3)c2c1)C1CCC2(CC1)OOC1(CCCCC1)OO2 | 0.0838 µM | 3.99 µM | 0.89 µM | 1.43 µM | > 10 µM | 0.87 µM | 0.112 µM | 0.05 µM | – | – | – | –
2 | COc1cc2ncnc(Nc3ccc(F)c(Cl)c3)c2cc1OCCCN1CCOCC1 | – | – | – | – | – | – | – | – | – | – | – | Activity [9]: inactive
3 | O=C(Nc1ccc2ncnc(Nc3cccc(Cl)c3)c2c1)C1CCC2(CC1)OOC1(O2)C2CC3CC(C2)CC1C3 (stereo not given) | 0.0324 µM | 31.5 µM | 13 µM | 18.2 µM | > 10 µM | 8.45 µM | 0.0489 µM | 2.29 µM | – | – | – | –
4 | Nc1ccc2ncnc(Nc3cccc(Cl)c3)c2c1 | – | – | – | – | – | – | – | – | > 50 µM | > 50 µM | 0.1 µM | IC50 ([4]; l02): > 100 µM; IC50 ([6]; a549): > 100 µM
5 | O=C(Nc1ccc2nccc(Nc3cccc(Cl)c3)c2c1)C1CCC2(CC1)OOC1(O2)C2CC3CC(C2)CC1C3 (stereo in doubt; 14) | 0.128 µM | – | – | – | – | – | 0.146 µM | – | 13.6 µM | 22.3 µM | 17 µM | IC50 ([4]; l02): > 50 µM; IC50 ([6]; a549): 18.3 µM
6 | O=C(Nc1ccc2nccc(Nc3cccc(Cl)c3)c2c1)C1CCC2(CC1)OCC1(OO2)C2CC3CC(C2)CC1C3 (stereo not given) | 0.169 µM | > 50 µM | > 50 µM | > 100 µM | > 10 µM | 26.1 µM | 0.132 µM | 31.6 µM | – | – | – | Activity [10]: inactive
7 | CC1(C)OOC2(CCC(C(=O)Nc3ccc4ncnc(Nc5cccc(Cl)c5)c4c3)CC2)OO1 | 0.0114 µM | 19.6 µM | 1.77 µM | 25.8 µM | > 10 µM | 3.62 µM | 0.0171 µM | 0.26 µM | – | – | – | –
8 | O=C(Nc1ccc2nccc(Nc3cccc(Cl)c3)c2c1)C1CCC2(CC1)OOC1(O2)C2CC3CC(C2)CC1C3 (stereo in doubt; 13) | 0.178 µM | – | 33.4 µM | 25.5 µM | > 10 µM | 25.3 µM | 0.236 µM | 12 µM | > 50 µM | – | – | –
9 | O=C(Nc1ccc2ncnc(Nc3cccc(Cl)c3)c2c1)C1CCC2(CC1)OOC1(OO2)C2CC3CC(C2)CC1C3 (stereo not given) | 0.38 µM | 8.06 µM | 3.06 µM | 5.7 µM | > 10 µM | 0.92 µM | 0.374 µM | 0.31 µM | – | – | – | Flu intensity [11]: 3.53; Activity [12]: 9.31%; Activity [13]: 7.54%; Activity [14]: Dose-dependent effect; Activity [15]: 4.26%; Activity [16]: 7.56%; Activity [17]: 19.8%; Activity [18]: 74.2%; Activity [19]: Active; Activity [20]: 4.57%; Activity [21]: 52.2%; Flu intensity [22]: 2.59; Activity [23]: 7.47%; Activity [24]: 12.7%; Flu intensity [25]: 6.42; Activity [26]: Dose-dependent effect; Activity [27]: 8.12%; Activity [28]: 83.5%
10 | O=C(Nc1ccc2ncnc(Nc3cccc(Cl)c3)c2c1)C1CCCCC1 | 0.00613 µM | > 50 µM | 41.8 µM | > 50 µM | > 10 µM | 6.36 µM | 0.00696 µM | 2.55 µM | – | – | – | –
11 | O=C(O)C1CCC2(CC1)OOC1(OO2)C2CC3CC(C2)CC1C3 (stereo not given) | > 10 µM | > 100 µM | > 50 µM | > 100 µM | > 10 µM | > 100 µM | > 10 µM | > 50 µM | – | – | – | –
12 | O=C(Nc1ccc2ncnc(Nc3cccc(Cl)c3)c2c1)C1CCC2(CC1)OCC1(OO2)C2CC3CC(C2)CC1C3 (stereo in doubt; 8) | 0.117 µM | – | – | – | – | – | 0.175 µM | – | 23.1 µM | 48.5 µM | 10.7 µM | IC50 ([6]; a549): 24.7 µM
13 | O=C(Nc1ccc2ncnc(Nc3cccc(Cl)c3)c2c1)C1CCC2(CC1)OCC1(OO2)C2CC3CC(C2)CC1C3 (stereo in doubt; 7) | 0.0947 µM | 22 µM | – | > 100 µM | > 10 µM | 18 µM | 0.112 µM | – | – | 21.3 µM | 5.09 µM | –
